Reference: PubChem BioAssay AID328 (DTP/NCI, 2004)
“And” between values parts separate entries of the source, which are not always exact repeats. Identical values can stand only once. Toxic doses and inconclusive results are not listed. The calls were made as follows: active = survival T/C of 150% or more; inactive = T/C below 125% in these data.

Tested on: BDF1 mice, P388 leukemia ip, median survival T/C
Assay: NCI In Vivo Anticancer Drug Screen. Data for tumor model P388 Leukemia (intraperitoneal) in B6D2F1 (BDF1) mice
Conditions: endpoint: median survival time, higher = longer survival
Summary of the method: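 In tumour-bearing mice, survival after compound treatment is set against the vehicle group and given as a quotient.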

[1] = dose: 6.25 mg/kg/injection, schedule: Q01DX009 (ip), vehicle: water
[2] = dose: 25.0 mg/kg/injection, schedule: Q01DX009 (ip), vehicle: water
[3] = dose: 25.0 mg/kg/injection, schedule: Q04DX003 (ip), vehicle: water
[4] = dose: 100.0 mg/kg/injection, schedule: Q04DX003 (ip), vehicle: water
[5] = dose: 100.0 mg/kg/injection, schedule: Q01DX009 (ip), vehicle: saline with Tween-80
[6] = dose: 200.0 mg/kg/injection, schedule: Q01DX009 (ip), vehicle: saline with Tween-80
[7] = dose: 100.0 mg/kg/injection, schedule: Q01DX009 (ip), vehicle: saline
[8] = dose: 50.0 mg/kg/injection, schedule: Q01DX009 (ip), vehicle: saline with Tween-80

Measured: T/C

O=C1CCC2N1CCC1CCCCN12 (stereo unspecified)
inactive: [1] 98 % of control | dose: 12.5 mg/kg/injection, schedule: Q01DX009 (ip), vehicle: water 100 % of control | [2] 86 % of control | [3] 107 % of control | dose: 50.0 mg/kg/injection, schedule: Q01DX009 (ip), vehicle: water 94 % of control | dose: 50.0 mg/kg/injection, schedule: Q04DX003 (ip), vehicle: water 118 % of control | dose: 100.0 mg/kg/injection, schedule: Q01DX009 (ip), vehicle: water 91 % of control | [4] 107 % of control | dose: 200.0 mg/kg/injection, schedule: Q04DX003 (ip), vehicle: water 109 % of control

O=C1c2ccccc2C(=O)N1N1C(=O)c2ccccc2C1=O
inactive: [5] 100 % of control | [6] 90 % of control | dose: 400.0 mg/kg/injection, schedule: Q01DX009 (ip), vehicle: saline with Tween-80 100 % of control

C[n+]1cc2c3ccccc3c(N)cc2c2ccccc21
active: dose: 3.12 mg/kg/injection, schedule: Q01DX009 (ip), vehicle: water 157 % of control | [1] 185 % of control | [4] 154 % of control | dose: 150.0 mg/kg/injection, schedule: Q04DX003 (ip), vehicle: water 203 % of control
inactive: dose: 6.25 mg/kg/injection, schedule: Q04DX003 (ip), vehicle: water 102 % of control | dose: 12.5 mg/kg/injection, schedule: Q04DX003 (ip), vehicle: water 116 % of control | [2] 91 % of control | [3] 98 % of control

COc1cc(NS(C)(=O)=O)ccc1Nc1c2ccc([N+](=O)[O-])cc2nc2c(C)cccc12
active: dose: 0.86 mg/kg/injection, schedule: Q04DX003 (ip), vehicle: saline with Tween-80 200 % of control | dose: 1.3 mg/kg/injection, schedule: Q04DX003 (ip), vehicle: saline with Tween-80 165 % of control | dose: 2.0 mg/kg/injection, schedule: Q04DX003 (ip), vehicle: saline with Tween-80 184 % of control | dose: 3.0 mg/kg/injection, schedule: Q04DX003 (ip), vehicle: saline with Tween-80 230 % of control and 204 % of control | dose: 5.0 mg/kg/injection, schedule: Q04DX003 (ip), vehicle: saline with Tween-80 241 % of control | dose: 8.0 mg/kg/injection, schedule: Q04DX003 (ip), vehicle: saline with Tween-80 230 % of control and 241 % of control | dose: 12.0 mg/kg/injection, schedule: Q04DX003 (ip), vehicle: saline with Tween-80 230 % of control
inactive: dose: 0.1 mg/kg/injection, schedule: Q04DX003 (ip), vehicle: saline with Tween-80 112 % of control | dose: 0.2 mg/kg/injection, schedule: Q04DX003 (ip), vehicle: saline with Tween-80 120 % of control | dose: 18.0 mg/kg/injection, schedule: Q04DX003 (ip), vehicle: saline with Tween-80 123 % of control

COC(=O)C1(N)CCCC1
inactive: [7] 91 % of control | dose: 200.0 mg/kg/injection, schedule: Q01DX009 (ip), vehicle: saline 104 % of control

CN(C)Cc1cc(C(C)(C)CC(C)(C)C)ccc1O
inactive: dose: 100.0 mg/kg/injection, schedule: Q04DX002 (ip), vehicle: Klucel (hydroxypropylcellulose) (HPC) 114 % of control | dose: 200.0 mg/kg/injection, schedule: Q04DX002 (ip), vehicle: Klucel (hydroxypropylcellulose) (HPC) 99 % of control

CCC/C=C/C=C/C1CC(O)C(O)C(=O)C1CO (stereo unspecified)
inactive: dose: 12.5 mg/kg/injection, schedule: Q01DX009 (ip), vehicle: saline with Tween-80 99 % of control | dose: 25.0 mg/kg/injection, schedule: Q01DX009 (ip), vehicle: saline with Tween-80 106 % of control | [8] 97 % of control | [5] 101 % of control

Nc1ccc(SCc2nc3cccc4c3n2CCC4)cc1
inactive: dose: 100.0 mg/kg/injection, schedule: Q04DX003 (ip), vehicle: saline with Tween-80 91 % of control | dose: 200.0 mg/kg/injection, schedule: Q04DX003 (ip), vehicle: saline with Tween-80 95 % of control | dose: 400.0 mg/kg/injection, schedule: Q04DX003 (ip), vehicle: saline with Tween-80 95 % of control

C[C@]12CC[C@H](OC(=O)Cc3ccc(N(CCCl)CCCl)cc3)CC1=CC[C@@H]1[C@@H]2CC[C@]2(C)C(=O)CC[C@@H]12
inactive: dose: 115.0 mg/kg/injection, schedule: Q04DX003 (ip), vehicle: saline with Tween-80 113 % of control
active: [6] 215 % of control | dose: 400.0 mg/kg/injection, schedule: Q04DX003 (ip), vehicle: alcohol 159 % of control | dose: 600.0 mg/kg/injection, schedule: Q04DX003 (ip), vehicle: alcohol 272 % of control

O=C1C=C2C(=CCOC2O)O1 (stereo unspecified)
inactive: dose: 0.01 mg/kg/injection, schedule: Q01DX009 (ip), vehicle: other 104 % of control | dose: 0.03 mg/kg/injection, schedule: Q01DX009 (ip), vehicle: other 111 % of control | dose: 0.1 mg/kg/injection, schedule: Q01DX009 (ip), vehicle: other 104 % of control
active: dose: 3.0 mg/kg/injection, schedule: Q01DX009 (ip), vehicle: other 158 % of control

CC(C)C1C(C)N1C(C)C (stereo unspecified)
inactive: dose: 25.0 mg/kg/injection, schedule: Q01DX009 (ip), vehicle: Klucel (hydroxypropylcellulose) (HPC) 100 % of control | dose: 25.0 mg/kg/injection, schedule: Q04DX003 (ip), vehicle: Klucel (hydroxypropylcellulose) (HPC) 100 % of control | dose: 50.0 mg/kg/injection, schedule: Q01DX009 (ip), vehicle: Klucel (hydroxypropylcellulose) (HPC) 100 % of control | dose: 50.0 mg/kg/injection, schedule: Q04DX003 (ip), vehicle: Klucel (hydroxypropylcellulose) (HPC) 100 % of control | dose: 100.0 mg/kg/injection, schedule: Q01DX009 (ip), vehicle: Klucel (hydroxypropylcellulose) (HPC) 95 % of control | dose: 100.0 mg/kg/injection, schedule: Q04DX003 (ip), vehicle: Klucel (hydroxypropylcellulose) (HPC) 104 % of control

NC(N)=NCCCCC(=O)Nc1ccc(S(N)(=O)=O)cc1
inactive: dose: 25.0 mg/kg/injection, schedule: Q01DX009 (ip), vehicle: saline 97 % of control | dose: 50.0 mg/kg/injection, schedule: Q01DX009 (ip), vehicle: saline 112 % of control | [7] 110 % of control

CC(C)(C)C(=O)C(Oc1ccc(Cl)cc1)n1cncn1 (stereo unspecified)
inactive: [8] 100 % of control | [5] 100 % of control | [6] 100 % of control

O=C1CCC([N+](=O)[O-])C(c2ccccc2Cl)N1 (stereo unspecified)
inactive: [8] 99 % of control | [5] 86 % of control | [6] 94 % of control

CCCCN(CCCC)CCOC(=O)c1ccc([N+](=O)[O-])cc1
inactive: dose: 50.0 mg/kg/injection, schedule: Q01DX001 (ip), vehicle: saline 100 % of control | dose: 100.0 mg/kg/injection, schedule: Q01DX001 (ip), vehicle: saline 100 % of control | dose: 200.0 mg/kg/injection, schedule: Q01DX001 (ip), vehicle: saline 100 % of control

CCC(C)C1NC(=O)C(NC(=O)c2c3nc4c(C(=O)NC5C(=O)NC(C(C)CC)C(=O)N6CCCC6C(=O)N(C)CC(=O)N(C)C(C(C)C)C(=O)OC5C)cc(N)c(C)c4oc-3c(C)c(=O)c2N)C(C)OC(=O)C(C(C)C)N(C)C(=O)CN(C)C(=O)C2CCCN2C1=O (stereo unspecified)
inactive: dose: 400.0 micrograms/kg/injection, schedule: Q01DX009 (ip), vehicle: saline + alcohol 86 % of control
active: dose: 0.15 mg/kg/injection, schedule: Q04DX003 (ip), vehicle: saline + alcohol 206 % of control | dose: 0.3 mg/kg/injection, schedule: Q04DX003 (ip), vehicle: saline + alcohol 227 % of control | dose: 0.6 mg/kg/injection, schedule: Q04DX003 (ip), vehicle: saline + alcohol 255 % of control and 312 % of control | dose: 1.2 mg/kg/injection, schedule: Q04DX003 (ip), vehicle: saline + alcohol 197 % of control | dose: 25.0 micrograms/kg/injection, schedule: Q01DX009 (ip), vehicle: saline + alcohol 190 % of control | dose: 50.0 micrograms/kg/injection, schedule: Q01DX009 (ip), vehicle: saline + alcohol 236 % of control | dose: 100.0 micrograms/kg/injection, schedule: Q01DX009 (ip), vehicle: saline + alcohol 232 % of control | dose: 200.0 micrograms/kg/injection, schedule: Q01DX009 (ip), vehicle: saline + alcohol 291 % of control

N#CC(Br)(Br)C(N)=O
inactive: dose: 2.5 mg/kg/injection, schedule: Q01DX009 (ip), vehicle: saline 115 % of control | dose: 5.0 mg/kg/injection, schedule: Q01DX009 (ip), vehicle: saline 102 % of control

C[NH-].C[NH-].[Br][Pt+2][Br]
active: dose: 6.0 mg/kg/injection, schedule: Q04DX003 (ip), vehicle: other 170 % of control | dose: 12.0 mg/kg/injection, schedule: Q04DX003 (ip), vehicle: other 208 % of control | dose: 12.5 mg/kg/injection, schedule: Q04DX003 (ip), vehicle: other 212 % of control
